Values of other authors as cited in patent US7687082B2, “Complementary compositions to reduce blood glucose levels and treat diabetes” (Astrum Therapeutics Pty. Ltd., priority 2005, dated 2010).
Read-outs that look alike come from different tables or passages of the source.

Experiments:
[1] = system: diabetes mellitus patients
T2DM subjects = conditions: 600 mg twice daily, 4 weeks
humans [2] = conditions: in vivo
[3] = system: timed-pregnant Sprague-Dawley rats; conditions: rat, in vivo
rats = conditions: rat, in vivo
T2DM patients [4] = conditions: 12 weeks, compared to placebo control
T2DM patients [5] = conditions: 200 μg twice daily, three weeks
humans [6] = conditions: compared to baseline
[7] = target: T1, adenosine triphosphate (ATP) citrate lyase (Homo sapiens, UniProt P53396)
T1 sequence (P53396 1-1101): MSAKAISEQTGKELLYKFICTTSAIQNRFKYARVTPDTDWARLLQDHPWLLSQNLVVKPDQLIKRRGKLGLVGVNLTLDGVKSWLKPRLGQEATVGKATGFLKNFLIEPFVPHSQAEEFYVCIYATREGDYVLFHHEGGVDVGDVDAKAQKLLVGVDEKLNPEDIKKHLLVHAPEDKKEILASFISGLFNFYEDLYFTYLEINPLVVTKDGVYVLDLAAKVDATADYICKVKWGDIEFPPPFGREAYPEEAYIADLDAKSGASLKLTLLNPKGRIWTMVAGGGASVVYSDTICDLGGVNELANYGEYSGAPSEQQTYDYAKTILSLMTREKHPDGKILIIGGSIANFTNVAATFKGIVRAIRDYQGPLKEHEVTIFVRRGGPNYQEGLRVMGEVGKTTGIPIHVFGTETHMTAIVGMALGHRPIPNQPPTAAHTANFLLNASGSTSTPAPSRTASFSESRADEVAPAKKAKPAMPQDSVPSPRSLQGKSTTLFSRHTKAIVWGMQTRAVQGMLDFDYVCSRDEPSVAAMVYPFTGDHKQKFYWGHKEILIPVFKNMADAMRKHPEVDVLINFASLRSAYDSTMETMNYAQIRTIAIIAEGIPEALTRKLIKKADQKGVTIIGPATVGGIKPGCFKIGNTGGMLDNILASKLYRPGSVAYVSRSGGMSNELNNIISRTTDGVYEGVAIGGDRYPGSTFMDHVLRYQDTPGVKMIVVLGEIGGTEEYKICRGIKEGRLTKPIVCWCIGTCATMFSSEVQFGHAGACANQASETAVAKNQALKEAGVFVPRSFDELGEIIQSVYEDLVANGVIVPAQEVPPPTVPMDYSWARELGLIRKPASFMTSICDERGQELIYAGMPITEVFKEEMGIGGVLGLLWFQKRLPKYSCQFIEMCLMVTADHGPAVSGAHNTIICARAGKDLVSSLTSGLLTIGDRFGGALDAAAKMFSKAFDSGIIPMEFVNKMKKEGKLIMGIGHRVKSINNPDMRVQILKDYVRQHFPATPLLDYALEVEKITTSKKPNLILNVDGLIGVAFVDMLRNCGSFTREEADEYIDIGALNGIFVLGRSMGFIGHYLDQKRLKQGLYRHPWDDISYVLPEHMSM

[8] = with food

For `O=C(O)CCCCC1CCSS1` (stereo not drawn) [α-LA, α-lipoic acid], the “decrease of levels of peroxides” value [1] is given as 34%, the “increases in glucose disposal” value (T2DM subjects; lean T2DM subjects compared to lean controls) is given as 50% and the “increases in glucose disposal” value (T2DM subjects; obese T2DM subjects compared to obese controls) is given as 42%.
For `CCN(CC)CCO` [diethylethanolamine], the individuals developing asthma (humans [2]) is listed as 0.6%, the “reduction of body weight” value [3] is listed as 9.5% and the “reduction of weight gain” value [3] is listed as 48%. For the same compound, the “findings in respiratory epithelium of the anterior nasal turbinate” value (rats) was “inflammatory cell infiltration, focal hyperplasia, and squamous metaplasia”.
For chromium picolinate [CrPic], the insulin level (T2DM patients [4]) is given as “significant decrease”, the “improvement in fasting glucose” value (T2DM patients [4]; p<0.001) is given as 0.44 mM and the “improvement in post-prandial serum glucose” value (T2DM patients [4]; p<0.001) is given as 1.97 mM.
For `[Cr]` [chromium], the reduction in triglycerides (T2DM patients [5]; compared to baseline) is listed as −10.5%, the reduction in glucose (T2DM patients [5]; compared to baseline, p<0.001) is listed as −21% and the reduction in cholesterol (T2DM patients [5]; compared to baseline, p<0.02) is listed as −9.4%. For the same compound, the “glycated hemoglobin (HbA1C)” value (T2DM patients [5]; from 8.2% at baseline, p<0.01) was 7.6%.
For `O=C(O)CC(O)(C(=O)O)C(O)C(=O)O` (single isomer, unassigned; (-)) [(−)-HCA, (−)-hydroxycitric acid], the “decreased body mass index (BMI)” value (humans [6]; 2.8 g) is given as −5 to −6%, the decreased body weight (humans [6]; 2.8 g) is given as −5 to −6% and the “decreased low density lipoprotein (LDL)” value (humans [6]; 2.8 g) is given as −13.2%. For the same compound, the “decreased total cholesterol (TC)” value (humans [6]; 2.8 g) was −7.2%, the “increased high density lipoprotein (HDL)” value (humans [6]; 2.8 g) was “+7.3%” and the “urine level of acetaldehyde” value (humans [6]; end of study) was “+83.1%”. The “urine level of acetone” value (humans [6]; end of study) was “+35.6%”, the “urine level of formaldehyde” value (humans [6]; end of study) was “+106.4%” and the “urine level of malondialdehyde” value (humans [6]; end of study) was “+88.4%”. The “inhibition of ATP citrate lyase” value [7] was “potent inhibitor”.
In the case of konjac mannan, the “decreased LDL” value [8] is listed as −23%, the “decreased TC” value [8] is listed as −12.7% and the “generalized loss of weight” value ([8]; average) is listed as 2.75 kg. The “reduced fasting and postprandial levels of glucose” value ([8]; on average) was −22%.
